Tests used:
rodent = conditions: in vivo; cited from earlier work
[1] = test system: mRNA expressed from the genes (A) to (D) in rat liver; assay: Behavior of genes (mRNA expression level, oligo-DNA microarray) in rat liver after 28-day oral administration; format: in vivo; conditions: mRNA vs vehicle control group
How it was run: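 Groups of four male F344 SPF rats aged 5 weeks are gavaged once a day for 28 days with test chemical in solvent or with solvent alone at equal volume. Total RNA comes from liver taken on day 28. Fold change of 1.5 or 1/1.5 versus control, directionally consistent, defines significance.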

liver = conditions: in vivo; cited from earlier work
[2] = gene group (A), Unigene No. Rn.167075
[3] = gene group (C), Unigene No. Rn.120914

C=CCc1ccc2c(c1)OCO2 [TS025, Safrole]
Cr+: Liver carcinogenicity (liver)
C+: Carcinogenicity (rodent)
+: Behavior of gene caused by administration of chemical substance, Gene No. 4846 ([1]; gene group (A), Unigene No. Rn.144554) | Behavior of gene caused by administration of chemical substance, Gene No. 4218 [1, 2] | Behavior of gene caused by administration of chemical substance, Gene No. 6182 ([1]; gene group (A), Unigene No. Rn.5834) | Behavior of gene caused by administration of chemical substance, Gene No. 5600 ([1]; gene group (A), Unigene No. Rn.9836) | Behavior of gene caused by administration of chemical substance, Gene No. 1494 ([1]; gene group (B), Unigene No. Rn.1430) | Behavior of gene caused by administration of chemical substance, Gene No. 2045 ([1]; gene group (B), Unigene No. Rn.19329) | Behavior of gene caused by administration of chemical substance, Gene No. 2203 ([1]; gene group (B), Unigene No. Rn.21240) | Behavior of gene caused by administration of chemical substance, Gene No. 533 ([1]; gene group (C), Unigene No. Rn.106184) | Behavior of gene caused by administration of chemical substance, Gene No. 725 ([1]; gene group (C), Unigene No. Rn.108075) | Behavior of gene caused by administration of chemical substance, Gene No. 4973 ([1]; gene group (C), Unigene No. Rn.118529) | Behavior of gene caused by administration of chemical substance, Gene No. 4095 ([1]; gene group (C), Unigene No. Rn.119024) | Behavior of gene caused by administration of chemical substance, Gene No. 6303 ([1]; gene group (C), Unigene No. Rn.123063) | Behavior of gene caused by administration of chemical substance, Gene No. 1741 ([1]; gene group (C), Unigene No. Rn.1647) | Behavior of gene caused by administration of chemical substance, Gene No. 154 ([1]; gene group (C), Unigene No. Rn.185941) | Behavior of gene caused by administration of chemical substance, Gene No. 813 ([1]; gene group (C), Unigene No. Rn.201760) | Behavior of gene caused by administration of chemical substance, Gene No. 3776 ([1]; gene group (C), Unigene No. Rn.43232) | Behavior of gene caused by administration of chemical substance, Gene No. 6742 ([1]; gene group (C), Unigene No. Rn.9779) | Behavior of gene caused by administration of chemical substance, Gene No. 5634 ([1]; gene group (C), Unigene No. Rn.9862)
−: Behavior of gene caused by administration of chemical substance, Gene No. 2026 [1, 2] | Behavior of gene caused by administration of chemical substance, Gene No. 1163 ([1]; gene group (C), Unigene No. Rn.11766) | Behavior of gene caused by administration of chemical substance, Gene No. 1334 [1, 3] | Behavior of gene caused by administration of chemical substance, Gene No. 6620 [1, 3] | Behavior of gene caused by administration of chemical substance, Gene No. 5878 ([1]; gene group (C), Unigene No. Rn.143213) | Behavior of gene caused by administration of chemical substance, Gene No. 1131 ([1]; gene group (C), Unigene No. Rn.144946) | Behavior of gene caused by administration of chemical substance, Gene No. 1562 ([1]; gene group (C), Unigene No. Rn.14744) | Behavior of gene caused by administration of chemical substance, Gene No. 893 ([1]; gene group (C), Unigene No. Rn.164817) | Behavior of gene caused by administration of chemical substance, Gene No. 6026 ([1]; gene group (C), Unigene No. Rn.167685) | Behavior of gene caused by administration of chemical substance, Gene No. 1993 ([1]; gene group (C), Unigene No. Rn.18728) | Behavior of gene caused by administration of chemical substance, Gene No. 2494 ([1]; gene group (C), Unigene No. Rn.23969) | Behavior of gene caused by administration of chemical substance, Gene No. 2546 ([1]; gene group (C), Unigene No. Rn.24561) | Behavior of gene caused by administration of chemical substance, Gene No. 3929 ([1]; gene group (C), Unigene No. Rn.4620) | Behavior of gene caused by administration of chemical substance, Gene No. 1119 ([1]; gene group (C), Unigene No. Rn.9757) | Behavior of gene caused by administration of chemical substance, Gene No. 5726 ([1]; gene group (D), Unigene No. Rn.9939)

— patent US20110039721A1, “METHOD FOR PREDICTION ABOUT CARCINOGENICITY OF SUBSTANCE IN RODENT” (Chemicals Evaluation and Research Institute, priority 2007, published 2011)
